From US20060210627A1, “Direct compression formulation and process” (priority 2005, published 2006) come the findings set out here.

SMILES strings stand for the structures.

Data set [1] in a line: Water sorption/desorption isotherm (dynamic vapor sorption, DVS-1). In kind it is physicochemical. Particulars: 25° C.; for moisture gain: at 85% RH. Here is the method:
Measurements were carried out at 25° C.

The nature of data set [2]: Pharmacokinetic drug-drug interaction study of vildagliptin 100 mg qd and metformin 1000 mg qd in patients with type 2 diabetes. In kind it is in vivo. As to conditions: human, plasma, single oral dose of 100 mg, concomitantly with 1000 mg of metformin. On the procedure:
Subjects are given an end-of-study evaluation on the last day of period 2 (Day 20). For all treatment periods, subjects fasted for a minimum of 10 hours pre-dose to 4 hours post-dose. Subjects are considered to have completed the study when all safety and pharmacokinetic evaluations have been completed.
The pharmacokinetic profiles are illustrated in FIG. 5.

Data set [3] can be described thus: Water solubility (statement). In kind it is physicochemical.
Data set [4] can be described thus: clinical. Particulars: human, plasma, po.
Data set [5] can be described thus: clinical. As to conditions: human, plasma, po. This is another data set of the same source.

As for `N#C[C@@H]1CCCN1C(=O)CNC12CC3CC(CC(O)(C3)C1)C2` [Crystalline vildagliptin Form A, 1-[(3-Hydroxy-adamant-1-ylamino)-acetyl]-pyrrolidine-2(S)-carbonitrile], in data set [1], the hygroscopicity result is recorded as “only very slightly hygroscopic” and the moisture gain is 0.9%.
On the same counts, the results for `N#C[C@@H]1CCCN1C(=O)CNC12CC3CC(CC(O)(C3)C1)C2` [vildagliptin amorphous form] are “hygroscopic” and 4.2%.
The term AUC(0-t) denotes the area under the concentration-time curve up to a stated or last time point. Read a high AUC(0-t) as more exposure. As usually defined, the Tmax is the time at which the peak concentration occurs. Broadly, the AUC(0-inf) is total exposure, with the tail of the curve extrapolated. Lower therefore signals low exposure. Broadly, the Cmax is the peak of the concentration-time curve. Turning to `N#C[C@@H]1CCCN1C(=O)CNC12CC3CC(CC(O)(C3)C1)C2` [vildagliptin, (S)-1-[(3-hydroxy-1-adamantyl)amino]acetyl-2-cyano-pyrrolidine], the AUC(0-t) came out at 1840 ng·h/mL in data set [2]; 453 ± 91 ng·h/mL in the data set “clinical [4]” (25 mg); 1020 ± 193 ng·h/mL in “clinical [4]” (50 mg); 2330 ± 278 ng·h/mL in “clinical [4]” (100 mg); 5060 ± 722 ng·h/mL in the data set “clinical [4]” (200 mg). The Tmax was 2.5 h in data set [2]; 1.5 h in “clinical [4]” (25 mg, tmax (h) median (min, max), single oral 25 mg FMI tablet, healthy volunteers); 2.1 h in the data set “clinical [4]” (50 mg, arithmetic mean tmax of vildagliptin, single oral dose of 50 mg, healthy human subject); 1.5 h in “clinical [4]” (50 mg, tmax (h) median (min, max), single oral 50 mg FMI tablet, healthy volunteers); 2 h in “clinical [4]” (100 mg, arithmetic mean tmax of vildagliptin, single oral dose of 100 mg, healthy human subject); 1.75 h in the data set “clinical [4]” (100 mg, tmax (h) median (min, max), single oral 100 mg FMI tablet, healthy volunteers). The Tmax in “clinical [4]” (200 mg, tmax (h) median (min, max), single oral 200 mg FMI tablet, healthy volunteers) came to 1.25 h; in the data set “clinical [5]” it was 1 h. The water solubility result in data set [3] is listed as “highly water soluble”. Further, the AUC(0-inf) was 461 ± 91 ng·h/mL in “clinical [4]” (25 mg), 1030 ng·h/mL in the data set “clinical [4]” (50 mg), 2350 ng·h/mL in the data set “clinical [4]” (100 mg) and 5080 ± 721 ng·h/mL in “clinical [4]” (200 mg). The Cmax in “clinical [4]” (25 mg) turned out to be 117 ± 41 ng/mL; in the data set “clinical [4]” (50 mg), 245 ± 87 ng/mL; in “clinical [4]” (200 mg), 1100 ± 280 ng/mL.
